# Data taken from PubChem BioAssay (NCI).
#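 Values below derive from 48-hour exposures of cells grown in 96-well plates, with endpoints linearly interpolated between the two concentrations bracketing the appropriate inhibition level. Abbreviation: GI50, concentration required for 50% inhibition of growth. At the TGI there is no net growth.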
# Tests used:
# Experiment in all cases: NCI tumour cell line growth inhibition, 48 h
# [1] = test system: SK-MEL-2 melanoma
# [2] = test system: SF-295 CNS
# [3] = test system: UO-31 renal
# [4] = test system: A549 NSCLC
# [5] = test system: UACC-257 melanoma
# [6] = test system: SN12C renal
# [7] = test system: OVCAR-8 ovarian
# [8] = test system: SK-OV-3 ovarian
# [9] = test system: UACC-62 melanoma
# [10] = test system: HL-60(TB) leukemia
# [11] = test system: HOP-92 NSCLC
# [12] = test system: SF-539 CNS
# [13] = test system: HCT-15 colon
# [14] = test system: NCI-H522 lung
# [15] = test system: MOLT-4 leukemia
# [16] = test system: MDA-MB-468 breast
# [17] = test system: MDA-MB-435
# [18] = test system: NCI-H23 lung
# [19] = test system: RXF 393 renal
# [20] = test system: U251 CNS
# [21] = test system: HS 578T breast
# [22] = test system: COLO 205 colon
# [23] = test system: OVCAR-5 ovarian
# [24] = test system: TK-10 renal
# [25] = test system: MDA-MB-231 breast
# [26] = test system: PC-3 prostate
# [27] = test system: NCI-H460 lung
# [28] = test system: CAKI-1 renal
# [29] = test system: IGROV1 ovarian
# [30] = test system: ACHN renal
# [31] = test system: SW-620 colon
# [32] = test system: MALME-3M melanoma
# [33] = test system: CCRF-CEM leukemia
# [34] = test system: 786-0 renal
# [35] = test system: SK-MEL-5 melanoma
# [36] = test system: T-47D breast
# [37] = test system: KM12 colon
# [38] = test system: SNB-19 CNS
# [39] = test system: HT29 colon
# [40] = test system: RPMI-8226 leukemia
# [41] = test system: BT-549 breast
# [42] = test system: SF-268 CNS
# [43] = test system: OVCAR-3 ovarian
# [44] = test system: HCC-2998 colon
# [45] = test system: NCI-H226 lung
# [46] = test system: A498 renal
# [47] = test system: LOX IMVI melanoma
# [48] = test system: MCF7 breast
# [49] = test system: SK-MEL-28 melanoma
# [50] = test system: OVCAR-4 ovarian
# [51] = test system: K-562 leukemia
# [52] = test system: HOP-62 NSCLC
# [53] = test system: DU-145 prostate
# [54] = test system: SNB-75 CNS
# [55] = test system: HCT-116 colon
# [56] = test system: M14 melanoma
smiles,measurement,setting,value
Nc1cccnc1/C=N/NC(=S)NCCNC(=O)c1ccc(-n2nc(-c3ccccc3O)nc2-c2ccccc2O)cc1,GI50,[1],0.765 µM
same,TGI,[1],9.46 µM
same,GI50,[2],0.541 µM
same,TGI,[2],2.97 µM
same,GI50,[3],1.38 µM
same,TGI,[3],5.23 µM
same,GI50,[4],1.23 µM
same,TGI,[4],> 23.8 µM
same,GI50,[5],0.838 µM
same,TGI,[5],> 20.7 µM
same,GI50,[6],0.494 µM
same,TGI,[6],6.35 µM
same,GI50,[7],0.418 µM
same,GI50,[8],0.594 µM
same,TGI,[8],3.51 µM
same,GI50,[9],0.236 µM
same,TGI,[9],1.05 µM
same,GI50,[10],0.261 µM
same,TGI,[10],0.901 µM
same,GI50,[11],0.283 µM
same,TGI,[11],5.16 µM
same,GI50,[12],0.106 µM
same,TGI,[12],1.36 µM
same,GI50,[13],1.98 µM
same,TGI,[13],11.7 µM
same,GI50,[14],0.154 µM
same,TGI,[14],0.798 µM
same,GI50,[15],0.3 µM
same,TGI,[15],> 100 µM
same,GI50,[16],0.249 µM
same,TGI,[16],0.935 µM
same,GI50,[17],0.561 µM
same,TGI,[17],> 100 µM
same,GI50,[18],0.454 µM
same,TGI,[18],6.97 µM
same,GI50,[19],1.04 µM
same,TGI,[19],4.06 µM
same,GI50,[20],0.305 µM
same,GI50,[21],0.232 µM
same,TGI,[21],> 100 µM
same,GI50,[22],0.329 µM
same,TGI,[22],11.7 µM
same,GI50,[23],1.57 µM
same,TGI,[23],> 28.4 µM
same,GI50,[24],1.27 µM
same,TGI,[24],> 29.7 µM
same,GI50,[25],0.471 µM
same,TGI,[25],14.9 µM
same,GI50,[26],0.376 µM
same,TGI,[26],13.2 µM
same,GI50,[27],0.396 µM
same,TGI,[27],2.46 µM
same,GI50,[28],1.24 µM
same,TGI,[28],> 20.9 µM
same,GI50,[29],0.355 µM
same,TGI,[29],11.6 µM
same,GI50,[30],1.21 µM
same,TGI,[30],18.5 µM
same,GI50,[31],0.648 µM
same,TGI,[31],> 100 µM
same,GI50,[32],0.628 µM
same,TGI,[32],8.94 µM
same,GI50,[33],0.186 µM
same,TGI,[33],1.21 µM
same,GI50,[34],0.79 µM
same,TGI,[34],3.73 µM
same,GI50,[35],0.492 µM
same,TGI,[35],2.16 µM
same,GI50,[36],0.225 µM
same,TGI,[36],1.91 µM
same,GI50,[37],0.48 µM
same,TGI,[37],6.53 µM
same,GI50,[38],0.337 µM
same,TGI,[38],> 100 µM
same,GI50,[39],0.472 µM
same,TGI,[39],2.72 µM
same,GI50,[40],0.344 µM
same,TGI,[40],2.09 µM
same,GI50,[41],0.374 µM
same,TGI,[41],2.83 µM
same,GI50,[42],0.557 µM
same,TGI,[42],> 64.4 µM
same,GI50,[43],0.366 µM
same,TGI,[43],15.9 µM
same,GI50,[44],0.533 µM
same,TGI,[44],8.16 µM
same,GI50,[45],0.803 µM
same,TGI,[45],4.85 µM
same,GI50,[46],29.7 µM
same,TGI,[46],> 100 µM
same,GI50,[47],0.331 µM
same,TGI,[47],1.88 µM
same,GI50,[48],0.189 µM
same,TGI,[48],4.9 µM
same,GI50,[49],0.532 µM
same,TGI,[49],> 100 µM
same,GI50,[50],0.729 µM
same,TGI,[50],> 100 µM
same,GI50,[51],0.115 µM
same,TGI,[51],> 100 µM
same,GI50,[52],0.487 µM
same,TGI,[52],5.46 µM
same,GI50,[53],1.6 µM
same,TGI,[53],> 100 µM
same,GI50,[54],0.328 µM
same,TGI,[54],> 33.8 µM
same,GI50,[55],0.305 µM
same,TGI,[55],6.67 µM
same,GI50,[56],0.425 µM
same,TGI,[56],2.47 µM
